Results published in patent US7125990B2, “Imidazolyl derivatives as corticotropin releasing factor inhibitors” (Bristol-Myers Squibb COmpany, priority 2001, dated 2006).

The molecules below were run against T1, CRF1 receptors (Homo sapiens, UniProt P34998) (assay: CRF1 receptor radioligand binding assay ([125I]-oCRF competition, IMR-32 cell membranes)). Details: IMR-32 cell membranes, [125I]-oCRF 100 pM; read-out: Ki (CRF-1R).
T1 construct: endogenous in cells; host or cells: IMR-32 cells, transformed with 2.5 µM 5'-bromo-2'-deoxyuridine for 10 days; membrane preparation
T1 sequence (P34998 24-415): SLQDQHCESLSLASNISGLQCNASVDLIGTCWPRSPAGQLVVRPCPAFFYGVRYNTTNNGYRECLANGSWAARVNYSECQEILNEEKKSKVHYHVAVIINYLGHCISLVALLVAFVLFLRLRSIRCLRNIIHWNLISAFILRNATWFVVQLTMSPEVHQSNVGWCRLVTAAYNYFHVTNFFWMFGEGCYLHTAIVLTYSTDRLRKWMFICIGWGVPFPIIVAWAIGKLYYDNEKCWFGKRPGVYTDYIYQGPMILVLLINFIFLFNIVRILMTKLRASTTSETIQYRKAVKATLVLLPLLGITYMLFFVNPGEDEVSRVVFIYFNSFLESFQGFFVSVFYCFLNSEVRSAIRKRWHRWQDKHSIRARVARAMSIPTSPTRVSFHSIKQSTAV
Protocol: CRF1 receptor antagonists, by occupying the same receptors, blocks the accessibility of the receptors to CRF, a hypothalamic factor mediating body's responses to physiological and psychological stress. The following radioligand binding assay examines the ability of the antagonists to bind the CRF1 receptors by assessing their ability to compete with binding of CRF to the receptors in cell membrane.
Tissue culture and membrane preparation. IMR-32 cells were grown at 37° C. in 5% CO2 as a monolayer in medium consisting of MEM supplemented with 10% heat-inactivated fetal bovine serum, 0.1 mM nonessential amino acids, 1 mM sodium pyruvate and 2 mM L-glutamine. […] After transformation, cells were rinsed twice with phosphate-buffered saline, and incubated for 10–15 min. at 4° C. in homogenization buffer consisting of 50 mM Tris (pH 7.2), 10 mM MgCl2 and 2 mM EGTA. Cells were transferred from plates to polypropylene tubes (16×100 mm), homogenized and centrifuged at 32,000×g for 15 min. Pellets were resuspended by homogenization in buffer and centrifuged at 32,000×g for 15 min. Pellets were resuspended in homogenization buffer then stored at −80° C. until needed.
Radioligand binding assays. […] The assay buffer consisted of 50 mM Tris (pH 7.2), 10 mM MgCl2, 0.5% BSA, 0.005% Triton X-100, 10 μg/mL aprotinin and 10 μg/mL leupeptin. Assays were stopped by addition of ice-cold wash buffer (50 mM Tris, pH 7.4 and 0.2% BSA). Filtration over glass fiber filters (Whatman GF/B) previously soaked in 50 mM Tris, pH 7.2 and 1% BSA was carried out using a Brandel cell harvester. Filters were washed with 10 mL of ice-cold wash buffer. Non-specific binding was defined with 10 μM oCRF. IC50 values for oCRF and test compounds were calculated by nonlinear regression using a one-site binding curve (GraphPad Prism).
`CCN(CCc1ccccc1)Cc1c(C(F)(F)F)nc2n(-c3ccc(C(C)C)cc3Br)c3ccccc3n12` [Example 196, [8-(2-Bromo-4-isopropyl-phenyl)-2-trifluoromethyl-8H-1,3a,8-triaza-cyclopenta[α]inden-3-ylmethyl]-ethyl-phenethyl-amine] was tested, and the Ki was less than 1000 nM.
Molecule `CCc1nc2n(-c3c(C)cc(C)cc3C)c(Cl)cn2c1C(=O)N(CC)CC1CC1` [Example 298, 6-Chloro-2-ethyl-7-(2,4,6-trimethylphenyl)-7H-imidazo[1,2-a]imidazole-3-carboxylic acid N-cyclopropylmethyl-N-ethylamide] has a Ki of less than 10 nM.
Work on `CCc1nc2n(c1C(=O)N(CC1CC1)CC1CC1)CCN2c1c(C)cc(C)cc1C` [Example 8, 2-Ethyl-7-(2,4,6-trimethyl-phenyl)-6,7-dihydro-5H-imidazo[1,2-a]imidazole-3-carboxylic acid cyclopropylmethyl-(cyclopropylmethyl)-amide] yielded a Ki of less than 100 nM.
`CCCCN(CC)Cc1c(CC)nc2n(-c3c(C)cc(C)cc3C)c(Cl)cn12` [Example 294, 3-[(N-Butyl-N-ethylamino)methyl]-6-chloro-2-ethyl-7-(2,4,6-trimethylphenyl)-7H-imidazo[1,2-a]imidazole] was tested, and the Ki was less than 1000 nM.
With `C=C(C)CN(CC)Cc1c(C(F)(F)F)nc2n1CCCN2c1c(C)cc(C)cc1C` [Example 71, Ethyl-(2-methyl-allyl)-[2-trifluoromethyl-8-(2,4,6-trimethyl-phenyl)-5,6,7,8-tetrahydro-imidazo[1,2-a]pyrimidin-3-ylmethyl]-amine] the Ki was less than 100 nM.
`CCN(CCc1ccccc1)Cc1c(C(F)(F)F)nc2n(-c3c(C)cc(C)cc3C)c3ccccc3n12` [Example 163, Ethyl-phenethyl-[2-trifluoromethyl-8-(2,4,6-trimethyl-phenyl)-8H-1,3a,8-triaza-cyclopenta[α]inden-3-ylmethyl]-amine] gave a Ki of less than 1000 nM.
With `Cc1cc(C)c(N2CCCn3c2nc(C)c3C(=O)N(CC2CC2)CC2CC2)c(C)c1` [Example 58, 2-Methyl-8-(2,4,6-trimethyl-phenyl)-5,6,7,8-tetrahydro-imidazo[1,2-a]pyrimidine-3-carboxylic acid bis-cyclopropylmethyl-amide] the Ki was less than 10000 nM.
`CCN(Cc1ccc(Cl)c(Cl)c1)Cc1c(C(F)(F)F)nc2n(-c3c(C)cc(C)cc3C)c(Cl)cn12` [Example 315, [6-Chloro-2-trifluoromethyl-7-(2,4,6-trimethyl-phenyl)-7H-imidazo[1,2-a]imidazol-3-ylmethyl]-(3,4-dichloro-benzyl)-ethyl-amine] showed a Ki of less than 1000 nM.
Molecule `CCCN(CC1CC1)C(=O)c1c(CC)nc2n1CCN2c1c(C)cc(Cl)cc1Cl` [Example 31, 7-(2,4-Dichloro-6-methyl-phenyl)-2-ethyl-6,7-dihydro-5H-imidazo[1,2-a]imidazole-3-carboxylic acid cyclopropylmethyl-propyl-amide] has a Ki of less than 100 nM.
Work on `CCCN(Cc1ccc(Cl)cc1)Cc1c(C(F)(F)F)nc2n1CCCN2c1c(C)cc(C)cc1Cl` [Example 129, (4-Chloro-benzyl)-[8-(2-chloro-4,6-dimethyl-phenyl)-2-trifluoromethyl-5,6,7,8-tetrahydro-imidazo[1,2-a]pyrimidin-3-ylmethyl]-propyl-amine] yielded a Ki of less than 1000 nM.
In the case of `Cc1cc(C)c(N2CCCn3c2nc(C(F)(F)F)c3CN(CC2CCC2)CC(F)(F)F)c(C)c1` [Example 76, Cyclobutylmethyl-(2,2,2-trifluoro-ethyl)-[2-trifluoromethyl-8-(2,4,6-trimethyl-phenyl)-5,6,7,8-tetrahydro-imidazo[1,2-a]pyrimidin-3-ylmethyl]-amine], the Ki is reported as less than 100 nM.
`CCCN(CC1CC1)C(=O)c1c(CC)nc2n(-c3c(C)cc(C)cc3C)c3ccccc3n12` [Example 141, 2-Ethyl-8-(2,4,6-trimethyl-phenyl)-8H-1,3a,8-triaza-cyclopenta[a]indene-3-carboxylic acid cyclopropylmethyl-propyl-amide] gave a Ki of less than 1000 nM.
For `CCC(CC)NCc1c(C)nc2n(-c3c(C)cc(C)cc3Cl)c3ncccc3n12` [Example 279, [8-(2-Chloro-4,6-dimethyl-phenyl)-2-methyl-8H-1,3a,7,8-tetraaza-cyclopenta[α]inden-3-ylmethyl]-(1-ethyl-propyl)-amine], the Ki was less than 10000 nM.
For `CCCN(CCC)Cc1c(C(F)(F)F)nc2n(-c3ccc(C(C)C)cc3Br)c3ccccc3n12` [Example 206, [8-(2-Bromo-4-isopropyl-phenyl)-2-trifluoromethyl-8H-1,3a,8-triaza-cyclopenta[α]inden-3-ylmethyl]-dipropyl-amine], the Ki was less than 10000 nM.
`C=C(C)CN(CC)Cc1c(C(F)(F)F)nc2n1CCCN2c1c(C)cc(C)cc1Cl` [Example 106, [8-(2-Chloro-4,6-dimethyl-phenyl)-2-trifluoromethyl-5,6,7,8-tetrahydro-imidazo[1,2-a]pyrimidin-3-ylmethyl]-ethyl-(2-methyl-allyl)-amine] was tested, and the Ki was less than 1000 nM.
`CCCN(Cc1c(C(F)(F)F)nc2n1CCCN2c1c(C)cc(C)cc1Cl)CC(F)(F)C(F)(F)F` [Example 117, [8-(2-Chloro-4,6-dimethyl-phenyl)-2-trifluoromethyl-5,6,7,8-tetrahydro-imidazo[1,2-a]pyrimidin-3-ylmethyl]-(2,2,3,3,3-pentafluoro-propyl)-propyl-amine] showed a Ki of less than 1000 nM.
Molecule `CCN(CCC1CC1)Cc1c(C(F)(F)F)nc2n(-c3c(C)cc(C)cc3C)c3ncccc3n12` [Example 229, (2-Cyclopropyl-ethyl)-ethyl-[2-trifluoromethyl-8-(2,4,6-trimethyl-phenyl)-8H-1,3a,7,8-tetraaza-cyclopenta[α]inden-3-ylmethyl]-amine] has a Ki of less than 1000 nM.
`Cc1cc(C)c(-n2c(Cl)cn3c(CN4CCC(c5ccccc5)C4)c(C(F)(F)F)nc23)c(C)c1` (stereo not shown) [Example 317, 2-Chloro-5-(3-phenyl-pyrrolidin-1-ylmethyl)-6-trifluoromethyl-1-(2,4,6-trimethyl-phenyl)-1H-imidazo[1,2-a]imidazole] gave a Ki of less than 1000 nM.
With `Cc1cc(C)c(N2CCCn3c2nc(C(F)(F)F)c3CN(CCC(F)(F)F)Cc2ccc(Cl)cc2)c(Cl)c1` [Example 128, (4-Chloro-benzyl)-[8-(2-chloro-4,6-dimethyl-phenyl)-2-trifluoromethyl-5,6,7,8-tetrahydro-imidazo[1,2-a]pyrimidin-3-ylmethyl]-(3,3,3-trifluoro-propyl)-amine] the Ki was less than 1000 nM.
`Cc1cc(C)c(-n2c(Cl)cn3c(CN4CCCC4Cc4ccccc4)c(C(F)(F)F)nc23)c(C)c1` (stereo not shown) [Example 316, 5-(2-Benzyl-pyrrolidin-1-ylmethyl)-2-chloro-6-trifluoromethyl-1-(2,4,6-trimethyl-phenyl)-1H-imidazo[1,2-a]imidazole] showed a Ki of less than 1000 nM.
Work on `C=CCN(CC=C)Cc1c(C(F)(F)F)nc2n(-c3c(C)cc(C)cc3C)c3ncccc3n12` [Example 219, Diallyl-[2-trifluoromethyl-8-(2,4,6-trimethyl-phenyl)-8H-1,3a,7,8-tetraaza-cyclopenta[α]inden-3-ylmethyl]-amine] yielded a Ki of less than 1000 nM.
`CCCN(Cc1c(C(F)(F)F)nc2n1CCCN2c1c(C)cc(C)cc1Cl)CC1CC1` [Example 96, [8-(2-Chloro-4,6-dimethyl-phenyl)-2-trifluoromethyl-5,6,7,8-tetrahydro-imidazo[1,2-a]pyrimidin-3-ylmethyl]-cyclopropylmethyl-propyl-amine] was tested, and the Ki was less than 100 nM.
With `Cc1cc(C)c(N2CCCn3c2nc(C(F)(F)F)c3CN(C)Cc2ccccc2)c(C)c1` [Example 65, Benzyl-methyl-[2-trifluoromethyl-8-(2,4,6-trimethyl-phenyl)-5,6,7,8-tetrahydro-imidazo[1,2-a]pyrimidin-3-ylmethyl]-amine] the Ki was less than 1000 nM.
In the case of `CCCN(CC1CC1)C(=O)c1c(C)nc2n(-c3c(C)cc(C)cc3C)c3ccccc3n12` [Example 140, 2-Methyl-8-(2,4,6-trimethyl-phenyl)-8H-1,3a,8-triaza-cyclopenta[α]indene-3-carboxylic acid cyclopropylmethyl-propyl-amide], the Ki is reported as less than 1000 nM.
In the case of `Cc1cc(C)c(N2CCCn3c2nc(C(F)(F)F)c3CN(CCc2ccccc2)CC(F)(F)F)c(Cl)c1` [Example 119, [8-(2-Chloro-4,6-dimethyl-phenyl)-2-trifluoromethyl-5,6,7,8-tetrahydro-imidazo[1,2-a]pyrimidin-3-ylmethyl]-phenethyl-(2,2,2-trifluoro-ethyl)-amine], the Ki is reported as less than 1000 nM.
